Some results are limits rather than exact numbers.

2 compounds from patent EP4151631A1, “HETEROCYCLIC COMPOUNDS FOR THE CONTROL OF INVERTEBRATE PESTS” (BASF SE, priority 2021, dated 2023) can be followed below.

The subject of assay [1] is Plutella xylostella. The experiment in a line: Diamond back moth leaf-dip test on cabbage leaves. The class given is in vivo. As to conditions: 3rd instar larvae on dipped cabbage leaves, 72 hours after treatment, read-out: mortality in comparison with untreated controls. The procedure: The active compound was dissolved at the desired concentration in a mixture of 1:1 (vol:vol) distilled water: acetone. Surfactant (Kinetic HV) was added at a rate of 0.01% (vol/vol). The test solution was prepared on the day of use.
Leaves of cabbage were dipped in test solution and air-dried. Treated leaves were placed in petri dishes lined with moist filter paper and inoculated with ten 3rd instar larvae. Mortality was recorded 72 hours after treatment. Feeding damages were also recorded using a scale of 0-100%.

Assay [2] deals with Spodoptera eridania. The experiment in a line: Southern armyworm foliar spray test on lima bean plants. The class given is in vivo. As to conditions: 96 h, 2nd instar larvae on sprayed lima bean plants, 4 days after treatment, read-out: mortality in comparison with untreated controls. The procedure:
The active compounds were formulated by a Tecan liquid handler in 100% cyclohexanone as a 10,000 ppm solution supplied in tubes. The 10,000 ppm solution was serially diluted in 100% cyclohexanone to make interim solutions. These served as stock solutions for which final dilutions were made by the Tecan in 50% acetone:50% water (v/v) into 10 or 20ml glass vials. A nonionic surfactant (Kinetic®) was included in the solution at a volume of 0.01% (v/v). The vials were then inserted into an automated electrostatic sprayer equipped with an atomizing nozzle for application to plants/insects. Lima bean plants (variety Sieva) were grown 2 plants to a pot and selected for treatment at the 1st true leaf stage. Test solutions were sprayed onto the foliage by an automated electrostatic plant sprayer equipped with an atomizing spray nozzle. The plants were dried in the sprayer fume hood and then removed from the sprayer. Each pot was placed into perforated plastic bags with a zip closure. Ten to 11 armyworm larvae were placed into the bag and the bags zipped closed. Test plants were maintained in a growth room at about 25°C and about 20-40% relative humidity for 4 days, avoiding direct exposure to fluorescent light (14:10 light:dark photoperiod) to prevent trapping of heat inside the bags. Mortality and reduced feeding were assessed 4 days after treatment, compared to untreated control plants.

What is called mortality is the percentage killed. For the compound `CC(NC(=O)c1cc(Br)cc(C(F)(F)F)c1)c1nccnc1-n1ncn(C)c1=O` (stereo not shown) [I-1, 3-bromo-N-[1-[3-(4-methyl-5-oxo-1,2,4-triazol-1-yl)pyrazin-2-yl]ethyl]-5-(trifluoromethyl)benzamide], the mortality at 300 ppm in assay [1] and in assay [2] was not below 75% throughout.

`CC(NC(=O)c1cc(Br)cc(C(F)(F)F)c1)c1nccnc1-n1ncn(CC(F)(F)F)c1=O` (stereo not shown) [I-2, 3-bromo-N-[1-[3-[5-oxo-4-(2,2,2-trifluoroethyl)-1,2,4-triazol-1-yl]pyrazin-2-yl]ethyl]-5-(trifluoromethyl)benzamide]: the mortality at 300 ppm in assay [1] and in assay [2] was not below 75% each time.
